Consider two compounds from patent publication US5814488A (priority 1993, dated 1998).

One data set relates to Klebsiella pneumoniae. The data set is described as follows: Comparison of MIC and MBC (Tables 5 and 6). The format is cell-based. The source says:
(§1) […]. […] […]

The subject of a further data set is S. aureus. The data set is described as follows: Comparison of MIC and MBC (Tables 5 and 6). The class given is cell-based.
Description: as §1

Another data set concerns Shigella. In words: Comparison of MIC and MBC (Tables 5 and 6). The class given is cell-based. The following applies: Table 6, 10 strains.
Description: as §1

The subject of a further data set is Pseudomonas sp. The data set is described as follows: Comparison of MIC and MBC (Tables 5 and 6). The format is cell-based. The following applies: Table 6, Pseudomonas sp., 20 strains.
Description: as §1

Another data set relates to Escherichia coli. In words: Comparison of MIC and MBC (Tables 5 and 6). The class given is cell-based.
Description: as §1

For data set [1] the following is noted: comparison value for MCR, source not stated in block, cited from earlier work.

In brackets after ≈: the same amount, converted by molar mass. Like-named read-outs stand apart in the source and are kept apart here.

With `NC[C@H]1O[C@H](O[C@H]2[C@H](O)[C@@H](O[C@H]3O[C@H](CO)[C@@H](O)[C@H](N)[C@H]3O)[C@H](N)C[C@@H]2N)[C@H](O)[C@@H](O)[C@@H]1O` [Kanamicin, Kanamycin], the MBC with Klebsiella pneumoniae (read-out: MBC90) was 4 µg/mL (≈ 8.26 µM); with Klebsiella pneumoniae (read-out: MBC range), 0.25 to 4 µg/mL (≈ 0.516 to 8.26 µM); with S. aureus (Staphylococcus aureus, read-out: MBC90) it was 64 µg/mL (≈ 132 µM); with Shigella (read-out: MBC90), 2 µg/mL (≈ 4.13 µM); with Shigella (read-out: MBC range), 0.5 to 4 µg/mL (≈ 1.03 to 8.26 µM); with Pseudomonas sp. (read-out: MBC90) it was 128 µg/mL (≈ 264 µM). The MBC with Pseudomonas sp. (read-out: MBC range) is 2 to 256 µg/mL (≈ 4.13 to 528 µM); with Escherichia coli (read-out: MBC90) it was 8 µg/mL (≈ 16.5 µM); in the data set with Escherichia coli (read-out: MBC range), 0.5 to 128 µg/mL (≈ 1.03 to 264 µM). In the data set with S. aureus (Table 6, S. aureus, 31 strains, in µg/mL (unit assumed)), the MBC range is reported as 0.125-128.
Turning to `CNC[C@@H]1CC[C@@H](N)[C@@H](O[C@H]2[C@H](O)[C@@H](O[C@H]3OC[C@](C)(O)[C@H](NC)[C@H]3O)[C@H](N)C[C@@H]2N)O1` [MCR, Micronomicin], the “dosage of general safety” value in data set [1] (129600 min) is 25 MKD. The “dosage showing apparent intoxication” value in data set [1] is 63 MKD.
